Results: paper PMC8565778, “Evaluation of health benefits of sea lamprey (Petromyzon marinus) isolates using in vitro antiinflammatory and antioxidant assays” (PLoS ONE, 2021)

How the values were obtained:
[1] = target: T1, COX-1 (cyclooxygenase enzyme-1) (Ovis aries, UniProt P05979); assay: biochemical; parameters: In vitro cyclooxygenase (COX-1 and COX-2) enzyme inhibition assay, percent inhibition; settings: read-out: % inhibition
T1 construct: gene PTGS1
T1 sequence (P05979 25-600): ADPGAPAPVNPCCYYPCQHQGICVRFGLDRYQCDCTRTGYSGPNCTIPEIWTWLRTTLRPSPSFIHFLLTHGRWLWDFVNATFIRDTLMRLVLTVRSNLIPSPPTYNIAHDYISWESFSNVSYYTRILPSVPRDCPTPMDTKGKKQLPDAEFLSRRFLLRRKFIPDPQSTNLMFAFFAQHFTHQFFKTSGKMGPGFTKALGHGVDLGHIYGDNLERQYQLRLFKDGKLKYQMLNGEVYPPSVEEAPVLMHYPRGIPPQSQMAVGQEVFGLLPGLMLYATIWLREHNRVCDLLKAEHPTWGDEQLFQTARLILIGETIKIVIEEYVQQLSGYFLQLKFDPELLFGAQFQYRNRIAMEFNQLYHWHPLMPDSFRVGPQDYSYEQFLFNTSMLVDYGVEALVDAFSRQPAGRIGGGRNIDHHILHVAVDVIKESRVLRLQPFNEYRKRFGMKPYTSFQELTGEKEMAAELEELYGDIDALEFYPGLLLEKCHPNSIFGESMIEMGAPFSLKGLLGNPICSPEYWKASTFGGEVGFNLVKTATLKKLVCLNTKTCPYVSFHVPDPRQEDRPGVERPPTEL
Procedure: (see S1 File for experimental details). To evaluate the health-beneficial activity of the sea lamprey compounds, we included all isolates of sea lamprey extract for the evaluation of in vitro antiinflammatory and antioxidant activities. […] (S1 File). […] Antiinflammatory activities of arginine, tyrosine, tryptophan, asparagine and inosine were assayed at 50 μg/mL concentration.

[2] = target: T2, COX-2 (cyclooxygenase enzyme-2) (Homo sapiens, UniProt P35354); assay: biochemical; parameters: In vitro cyclooxygenase (COX-1 and COX-2) enzyme inhibition assay, percent inhibition; settings: read-out: % inhibition
T2 construct: gene PTGS2
T2 sequence (P35354 18-604): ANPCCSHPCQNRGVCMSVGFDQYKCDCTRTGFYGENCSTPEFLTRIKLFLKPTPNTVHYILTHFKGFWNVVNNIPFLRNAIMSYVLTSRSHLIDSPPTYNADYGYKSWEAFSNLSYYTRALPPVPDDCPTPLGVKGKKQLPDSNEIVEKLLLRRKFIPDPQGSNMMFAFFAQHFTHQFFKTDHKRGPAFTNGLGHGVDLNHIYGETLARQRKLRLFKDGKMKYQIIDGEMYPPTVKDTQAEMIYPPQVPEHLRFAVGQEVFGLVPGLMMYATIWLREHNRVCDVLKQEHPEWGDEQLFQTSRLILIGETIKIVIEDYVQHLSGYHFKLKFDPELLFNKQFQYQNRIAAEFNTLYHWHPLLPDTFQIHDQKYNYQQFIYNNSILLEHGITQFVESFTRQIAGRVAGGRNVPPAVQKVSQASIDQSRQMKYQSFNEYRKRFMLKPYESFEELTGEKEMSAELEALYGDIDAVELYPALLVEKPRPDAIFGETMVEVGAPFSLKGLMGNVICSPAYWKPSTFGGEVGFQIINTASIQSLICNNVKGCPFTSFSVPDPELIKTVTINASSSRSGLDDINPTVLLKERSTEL

[3] = parameters: Fe2+-induced liposome lipid peroxidation; per cent inhibition measured as loss of fluorescent probe signal; settings: large unilamellar vesicles; LPO (lipid peroxidation of large unilamellar liposomes, Fe2+-initiated); 25 ug/mL; inhibitor
Procedure: Pure compounds and positive controls were assayed for LPO inhibitory activities according to published procedures from our laboratory (see S1 File for experimental details). The antioxidant assay, the lipid peroxidation inhibitory (LPO) assay, used in this study measures free radical scavenging capability of pure compounds and extracts. In this assay, peroxidation of the lipid was initiated by the addition of Fe^2+ resulting in the generation of radicals, which cause the peroxidation of LUV and in turn the fluorescent probes embedded in it. The loss of fluorescent intensity in the assay indicates the oxidative damage to the lipid component of the LUV [11–15, 21] (S1 File). At 25 μg/mL concentration, cholesteryl palmitate, cholesteryl oleate, cholesteryl eicosapentaenoate and cholesteryl arachidonate inhibited LPO by 38, 60, 72 and 82%, respectively (Table 2) (Fig S in S1 File). The most abundant steroidal compound in sea lamprey was cholesterol and it lacked LPO inhibitory activity. Antioxidant activity profiles of the cholesterol esters were like its antiinflammatory profiles. That is, an increase in chain length and unsaturation increased the LPO activity. Majority of the lipophilic fraction of the sea lamprey extract consisted of glycerides and free fatty acids.

[4] = target: T1, COX-1 (cyclooxygenase enzyme-1); assay: in vitro COX-1 enzyme inhibitory assay, single concentration […]; format: biochemical; settings: read-out: Bioassay results / COX-1^a
[5] = target: T2, COX-2 (cyclooxygenase enzyme-2); assay: biochemical; settings: read-out: Bioassay results / COX-2 ^a
[6] = target: T1, COX-1 (cyclooxygenase enzyme-1); assay: biochemical; settings: read-out: Bioassay results / COX-1^a

Compound | % inhibition [3] | also measured
CCCCC/C=C\C/C=C\C/C=C\C/C=C\CCCC(=O)O[C@H]1CC[C@@]2(C)C(=CC[C@H]3[C@@H]4CC[C@H]([C@H](C)CCCC(C)C)[C@@]4(C)CC[C@@H]32)C1 [compound 11, Cholesteryl arachidonate] | 82.0 ± 1.4% | inhibition at 25 µg/mL [1]: 74.7 ± 0.4%; inhibition at 25 µg/mL [2]: 67.9 ± 2.2%
CC(C)Cc1ccc(C(C)C(=O)O)cc1 (stereo not drawn) [compound 4, Ibuprofen] |  | inhibition at 15 µg/mL [4]: 56.4%
C[C@@H](O)[C@H](N)C(=O)O [compound 26, Threonine] | 45.0 ± 1.4% | 
CC/C=C\C/C=C\C/C=C\C/C=C\C/C=C\CCCC(=O)O[C@H]1CC[C@@]2(C)C(=CC[C@H]3[C@@H]4CC[C@H]([C@H](C)CCCC(C)C)[C@@]4(C)CC[C@@H]32)C1 [compound 10, Cholesteryl eicosapentaenoate] | 72.0 ± 1.4% | inhibition at 25 µg/mL [1]: 63.9 ± 2.1%; inhibition at 25 µg/mL [2]: 58.5 ± 1.7%
NCC(=O)O [compound 29, Glycine] | 16.5 ± 0.7% | 
O=c1[nH]cnc2nc[nH]c12 [compound 38, Hypoxanthine] | 24.5 ± 0.7% | 
CCCCCCCCCCCCCCCC(=O)O[C@H]1CC[C@@]2(C)C(=CC[C@H]3[C@@H]4CC[C@H]([C@H](C)CCCC(C)C)[C@@]4(C)CC[C@@H]32)C1 [compound 8, Cholesteryl palmitate^#] | 38.0 ± 1.4% | 
Nc1[nH]cnc2ncnc1-2 [compound 36, Adenine] | 19.5 ± 0.7% | 
NC(=O)C[C@H](N)C(=O)O [compound 27, Asparagine] | 28.0 ± 1.4% | 
COc1ccc2cc([C@H](C)C(=O)O)ccc2c1 [compound 3, Naproxen] |  | inhibition at 12 µg/mL [5]: 60.5%; inhibition at 12 µg/mL [6]: 61.4%
